Experimental data published in patent US20230150974A1 (Foghorn Therapeutics Inc., priority 2020, published 2023).
Structures can show the parent of a compound that is named as a salt.

How the values were obtained:
HiBiT-BRM = biological target: T1, HiBiT-BRM (Homo sapiens, UniProt P51531); assay: HiBiT-BRM cell-based degradation assay (Nano-Glo HiBiT Lytic Detection); conditions: HeLa cells expressing HiBiT-BRM, 24 h; for DC50: read-out: BRM HiBit Degradation IC50
T1 construct: expressed in transfected cells
How it was run: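 HeLa cells stably expressing HiBiT-tagged BRM were treated for 24 h, then lysed with LgBiT-containing Nano-Glo reagent and luminescence read. % degradation scaled between DMSO (high control) and 2 μM reference BRM/BRG1 degrader (low control).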

HiBit-BRG1 = biological target: T2, HiBit-BRG1 (Homo sapiens, UniProt P51532); assay: HiBit-BRG1 cell-based degradation assay (Nano-Glo HiBiT Lytic Detection); conditions: HeLa cells expressing HiBit-BRG1 and LgBit, 24 h; for DC50: read-out: BRG1 HiBit Degradation IC50; for Dmax: read-out: BRG1 HiBit Degradation Maximum (%)
T2 construct: expressed in transfected cells
How it was run: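 Stable HeLa line co-expressing HiBit-BRG1 and LgBit, 5000 cells/well, treated 24 h in a tissue culture incubator. Lysed with Nano-Glo HiBiT lytic reagent, luminescence read. % degradation normalized to DMSO (high control) and 2 μM reference BRM/BRG1 degrader (low control).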

T2 sequence (P51532 whole entry): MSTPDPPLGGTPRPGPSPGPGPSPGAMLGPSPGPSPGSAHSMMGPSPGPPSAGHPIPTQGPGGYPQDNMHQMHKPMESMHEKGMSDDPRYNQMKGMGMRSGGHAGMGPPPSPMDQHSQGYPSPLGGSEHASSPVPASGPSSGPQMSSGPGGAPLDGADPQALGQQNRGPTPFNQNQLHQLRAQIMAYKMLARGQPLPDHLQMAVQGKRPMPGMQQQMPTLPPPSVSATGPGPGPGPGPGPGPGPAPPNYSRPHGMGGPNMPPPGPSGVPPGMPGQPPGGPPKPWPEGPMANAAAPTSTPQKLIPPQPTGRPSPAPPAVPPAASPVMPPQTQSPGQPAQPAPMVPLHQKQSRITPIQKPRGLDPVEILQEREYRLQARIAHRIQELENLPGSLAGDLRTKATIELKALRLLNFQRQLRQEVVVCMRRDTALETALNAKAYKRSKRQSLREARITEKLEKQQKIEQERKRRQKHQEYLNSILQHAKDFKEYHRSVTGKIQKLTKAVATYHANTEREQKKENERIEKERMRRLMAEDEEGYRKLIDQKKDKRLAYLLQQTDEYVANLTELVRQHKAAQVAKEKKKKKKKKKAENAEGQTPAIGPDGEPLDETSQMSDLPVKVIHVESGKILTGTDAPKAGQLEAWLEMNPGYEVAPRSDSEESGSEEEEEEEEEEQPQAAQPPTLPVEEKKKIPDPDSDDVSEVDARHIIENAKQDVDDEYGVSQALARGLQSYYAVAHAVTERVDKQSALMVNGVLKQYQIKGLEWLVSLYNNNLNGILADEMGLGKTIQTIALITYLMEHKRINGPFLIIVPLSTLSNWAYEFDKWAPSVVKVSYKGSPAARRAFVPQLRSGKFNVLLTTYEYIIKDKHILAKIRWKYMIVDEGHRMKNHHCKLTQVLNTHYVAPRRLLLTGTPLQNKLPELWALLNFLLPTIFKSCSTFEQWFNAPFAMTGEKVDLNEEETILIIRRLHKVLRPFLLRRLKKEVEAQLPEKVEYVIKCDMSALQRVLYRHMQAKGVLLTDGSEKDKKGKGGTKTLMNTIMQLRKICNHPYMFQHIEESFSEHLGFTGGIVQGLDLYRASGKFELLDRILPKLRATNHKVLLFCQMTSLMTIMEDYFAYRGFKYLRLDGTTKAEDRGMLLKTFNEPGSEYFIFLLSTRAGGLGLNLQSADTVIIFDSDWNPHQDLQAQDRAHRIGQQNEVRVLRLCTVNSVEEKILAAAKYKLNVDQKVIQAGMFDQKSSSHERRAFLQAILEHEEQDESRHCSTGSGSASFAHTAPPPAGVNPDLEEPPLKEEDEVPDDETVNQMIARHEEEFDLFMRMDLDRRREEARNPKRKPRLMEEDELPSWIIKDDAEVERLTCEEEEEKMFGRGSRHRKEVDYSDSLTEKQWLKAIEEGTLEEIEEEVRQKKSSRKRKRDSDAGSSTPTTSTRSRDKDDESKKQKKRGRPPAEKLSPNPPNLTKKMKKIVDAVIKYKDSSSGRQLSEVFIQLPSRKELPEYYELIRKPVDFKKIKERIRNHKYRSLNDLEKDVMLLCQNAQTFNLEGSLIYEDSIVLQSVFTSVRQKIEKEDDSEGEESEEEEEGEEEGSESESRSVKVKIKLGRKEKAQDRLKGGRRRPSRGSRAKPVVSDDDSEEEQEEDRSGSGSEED
T1 sequence (P51531 whole entry): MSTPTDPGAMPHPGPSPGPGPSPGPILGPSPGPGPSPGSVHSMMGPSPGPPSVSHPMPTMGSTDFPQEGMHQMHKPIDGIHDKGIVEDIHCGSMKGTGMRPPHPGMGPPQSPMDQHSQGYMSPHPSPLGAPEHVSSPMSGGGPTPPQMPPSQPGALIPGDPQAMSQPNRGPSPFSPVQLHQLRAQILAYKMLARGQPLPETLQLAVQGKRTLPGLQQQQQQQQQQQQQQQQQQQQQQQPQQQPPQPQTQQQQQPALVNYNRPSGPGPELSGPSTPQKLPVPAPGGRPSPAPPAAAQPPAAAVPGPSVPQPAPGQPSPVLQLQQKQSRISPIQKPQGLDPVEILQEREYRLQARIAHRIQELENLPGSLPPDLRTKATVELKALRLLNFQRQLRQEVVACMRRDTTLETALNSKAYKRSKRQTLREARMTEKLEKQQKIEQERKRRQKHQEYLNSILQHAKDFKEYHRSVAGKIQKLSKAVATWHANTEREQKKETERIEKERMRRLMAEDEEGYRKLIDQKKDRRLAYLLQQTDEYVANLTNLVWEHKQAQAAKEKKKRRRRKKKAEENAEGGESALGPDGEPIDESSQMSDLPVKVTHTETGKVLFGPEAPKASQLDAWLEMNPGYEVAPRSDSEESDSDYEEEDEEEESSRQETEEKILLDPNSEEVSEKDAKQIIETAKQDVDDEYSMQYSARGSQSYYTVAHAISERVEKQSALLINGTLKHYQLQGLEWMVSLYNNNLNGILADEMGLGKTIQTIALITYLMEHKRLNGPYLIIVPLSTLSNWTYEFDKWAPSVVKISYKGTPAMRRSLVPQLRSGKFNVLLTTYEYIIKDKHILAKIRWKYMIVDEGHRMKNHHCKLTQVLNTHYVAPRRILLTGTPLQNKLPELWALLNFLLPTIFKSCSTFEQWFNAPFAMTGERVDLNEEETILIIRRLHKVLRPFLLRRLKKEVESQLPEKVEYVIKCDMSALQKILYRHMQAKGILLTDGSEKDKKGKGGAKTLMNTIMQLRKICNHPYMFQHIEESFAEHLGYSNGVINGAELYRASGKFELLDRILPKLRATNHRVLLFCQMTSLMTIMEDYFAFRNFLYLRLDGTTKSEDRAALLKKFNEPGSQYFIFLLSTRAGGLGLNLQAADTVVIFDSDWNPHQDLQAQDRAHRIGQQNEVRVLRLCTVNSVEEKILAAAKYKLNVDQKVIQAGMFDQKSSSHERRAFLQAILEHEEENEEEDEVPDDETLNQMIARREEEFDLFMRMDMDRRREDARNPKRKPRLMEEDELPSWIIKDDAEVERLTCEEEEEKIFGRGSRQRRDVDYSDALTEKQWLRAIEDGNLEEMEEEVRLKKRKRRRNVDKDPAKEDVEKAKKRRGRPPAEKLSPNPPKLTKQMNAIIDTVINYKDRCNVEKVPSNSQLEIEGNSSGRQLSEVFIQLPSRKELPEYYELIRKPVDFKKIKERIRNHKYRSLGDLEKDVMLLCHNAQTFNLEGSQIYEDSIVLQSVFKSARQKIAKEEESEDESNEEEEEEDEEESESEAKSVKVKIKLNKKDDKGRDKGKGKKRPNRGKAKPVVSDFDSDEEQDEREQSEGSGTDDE

DC50 (HiBiT-BRM) [nM]	DC50 (HiBit-BRG1) [nM]	Dmax (HiBit-BRG1) [%]	Structure (SMILES)	BRM HiBit Degradation Maximum (%) (HiBiT-BRM)
> 100	> 100	> 50	Cc1ncsc1-c1ccc(CNC(=O)[C@@H]2C[C@@H](O)CN2C(=O)[C@@H](NC(=O)CCCCCCCCCNCc2ccc(CCN(C)c3cc(-c4ccccc4O)nnc3N)cc2)C(C)(C)C)cc1 [Compound 131, (2S,4R)-1-((S)-2-(10-((4-(2-((3-amino-6-(2-hydroxyphenyl)pyridazin-4-yl)(methyl)amino)ethyl)benzyl)amino)decanamido)-3,3-dimethylbutanoyl)-4-hydroxy-N-(4-(4-methylthiazol-5-yl)benzyl)pyrrolidine-2-carboxamide]	A (“A” indicates maximum degradation ≥75%)
> 100	> 1000	> 50	Cc1ncsc1-c1ccc(CNC(=O)[C@@H]2C[C@@H](O)CN2C(=O)[C@@H](NC(=O)CCCCCCCCC(=O)NCc2ccc(CCN(C)c3cc(-c4ccccc4O)nnc3N)cc2)C(C)(C)C)cc1 [Compound 132, N′-[[4-(2-[[3-amino-6-(2-hydroxyphenyl)pyridazin-4-yl](methyl)amino]ethyl)phenyl]methyl]-N-[(2S)-1-[(2S,4R)-4-hydroxy-2-([[4-(4-methyl-1,3-thiazol-5-yl)phenyl]methyl]carbamoyl)pyrrolidin-1-yl]-3,3-dimethyl-1-oxobutan-2-yl]decanediamide]	A (“A” indicates maximum degradation ≥75%)
> 100	> 1000	< 50	Cc1ncsc1-c1ccc(CNC(=O)[C@@H]2C[C@@H](O)CN2C(=O)[C@@H](NC(=O)CCCCCCCCCCCCCCCC(=O)NCc2ccc(CCN(C)c3cc(-c4ccccc4O)nnc3N)cc2)C(C)(C)C)cc1 [Compound 133, N1-(4-(2-((3-amino-6-(2-hydroxyphenyl)pyridazin-4-yl)(methyl)amino)ethyl)benzyl)-N17-((S)-1-((2S,4R)-4-hydroxy-2-((4-(4-methylthiazol-5-yl)benzyl)carbamoyl)pyrrolidin-1-yl)-3,3-dimethyl-1-oxobutan-2-yl)heptadecanediamide]	B (“B” indicates maximum degradation ≥50%)
> 100	> 1000	< 50	Cc1ncsc1-c1ccc(CNC(=O)[C@@H]2C[C@@H](O)CN2C(=O)[C@@H](NC(=O)CCCCCCCCCNC(=O)c2ccc(CCNc3cc(-c4ccccc4O)nnc3N)cc2)C(C)(C)C)cc1 [Compound 134, (2S,4R)-1-[(2S)-2-(10-[[4-(2-[[3-amino-6-(2-hydroxyphenyl)pyridazin-4-yl]amino]ethyl)phenyl]formamido]decanamido)-3,3-dimethylbutanoyl]-4-hydroxy-N-[[4-(4-methyl-1,3-thiazol-5-yl)phenyl]methyl]pyrrolidine-2-carboxamide]	B (“B” indicates maximum degradation ≥50%)
> 1000	> 1000	< 50	Nc1nnc(-c2ccccc2O)cc1OCCc1ccc(CNC(=O)CCCCNc2ccc3c(c2)C(=O)N(C2CCC(=O)NC2=O)C3)cc1 (stereo not drawn) [Compound 135, N-[[4-(2-[[3-amino-6-(2-hydroxyphenyl)pyridazin-4-yl]oxy]ethyl)phenyl]methyl]-5-[[2-(2,6-dioxopiperidin-3-yl)-3-oxo-1H-isoindol-5-yl]amino]pentanamide]	C (“C” indicates maximum degradation <50%)
> 100	> 1000	< 50	Cc1ncsc1-c1ccc(CNC(=O)[C@@H]2C[C@@H](O)CN2C(=O)[C@@H](NC(=O)CCCCCCCCCCCCCCCC(=O)NCc2ccc(CCNc3cc(-c4ccccc4O)nnc3N)cc2)C(C)(C)C)cc1 [Compound 136, N′-[[4-(2-[[3-amino-6-(2-hydroxyphenyl)pyridazin-4-yl]amino]ethyl)phenyl]methyl]-N-[(2S)-1-[(2S,4R)-4-hydroxy-2-([[4-(4-methyl-1,3-thiazol-5-yl)phenyl]methyl]carbamoyl)pyrrolidin-1-yl]-3,3-dimethyl-1-oxobutan-2-yl]heptadecanediamide]	B (“B” indicates maximum degradation ≥50%)
> 1000	> 1000	< 50	Nc1nnc(-c2ccccc2O)cc1OCCc1ccc(CNC(=O)CCCCNc2ccc3c(c2)CN(C2CCC(=O)NC2=O)C3=O)cc1 (stereo not drawn) [Compound 137, N-(4-(2-((3-amino-6-(2-hydroxyphenyl)pyridazin-4-yl)oxy)ethyl)benzyl)-5-((2-(2,6-dioxopiperidin-3-yl)-1-oxoisoindolin-5-yl)amino)pentanamide]	C (“C” indicates maximum degradation <50%)
> 100	> 1000	< 50	Cc1ncsc1-c1ccc(CNC(=O)[C@@H]2C[C@@H](O)CN2C(=O)[C@@H](NC(=O)CCCCCCCCC(=O)NCc2ccc(CCOc3cc(-c4ccccc4O)nnc3N)cc2)C(C)(C)C)cc1 [Compound 138, N1-(4-(2-((3-amino-6-(2-hydroxyphenyl)pyridazin-4-yl)oxy)ethyl)benzyl)-N10-((S)-1-((2S,4R)-4-hydroxy-2-((4-(4-methylthiazol-5-yl)benzyl)carbamoyl)pyrrolidin-1-yl)-3,3-dimethyl-1-oxobutan-2-yl)decanediamide]	A (“A” indicates maximum degradation ≥75%)
> 100	> 1000	> 50	Cc1ncsc1-c1ccc(CNC(=O)[C@@H]2C[C@@H](O)CN2C(=O)[C@@H](NC(=O)CCCCCCCCCNCc2ccc(CCNc3cc(-c4ccccc4O)nnc3N)cc2)C(C)(C)C)cc1 [Compound 139, (2S,4R)-1-((S)-2-(10-((4-(2-((3-amino-6-(2-hydroxyphenyl)pyridazin-4-yl)amino)ethyl)benzyl)amino)decanamido)-3,3-dimethylbutanoyl)-4-hydroxy-N-(4-(4-methylthiazol-5-yl)benzyl)pyrrolidine-2-carboxamide]	A (“A” indicates maximum degradation ≥75%)
> 100	> 1000	< 50	Cc1ncsc1-c1ccc(CNC(=O)[C@@H]2C[C@@H](O)CN2C(=O)[C@@H](NC(=O)CCCCCCCCC(=O)NCc2ccc(CCNc3cc(-c4ccccc4O)nnc3N)cc2)C(C)(C)C)cc1 [Compound 140, N′-[[4-(2-[[3-amino-6-(2-hydroxyphenyl)pyridazin-4-yl]amino]ethyl)phenyl]methyl]-N-[(2S)-1-[(2S,4R)-4-hydroxy-2-([[4-(4-methyl-1,3-thiazol-5-yl)phenyl]methyl]carbamoyl)pyrrolidin-1-yl]-3,3-dimethyl-1-oxobutan-2-yl]decanediamide]	A (“A” indicates maximum degradation ≥75%)
> 1000	> 1000	< 50	Nc1nnc(-c2ccccc2O)cc1NCCc1ccc(CNC(=O)CCCCNc2cccc3nnn(C4CCC(=O)NC4=O)c(=O)c23)cc1 (stereo not drawn) [Compound 141, N-(4-(2-((3-amino-6-(2-hydroxyphenyl)pyridazin-4-yl)amino)ethyl)benzyl)-5-((3-(2,6-dioxopiperidin-3-yl)-4-oxo-3,4-dihydrobenzo[d][1,2,3]triazin-5-yl)amino)pentanamide]	C (“C” indicates maximum degradation <50%)
> 1000	> 1000	< 50	CN(CCc1ccc(CNC(=O)CCCCNc2cccc3nnn(C4CCC(=O)NC4=O)c(=O)c23)cc1)c1cc(-c2ccccc2O)nnc1N (stereo not drawn) [Compound 142, N-(4-(2-((3-amino-6-(2-hydroxyphenyl)pyridazin-4-yl)(methyl)amino)ethyl)benzyl)-5-((3-(2,6-dioxopiperidin-3-yl)-4-oxo-3,4-dihydrobenzo[d][1,2,3]triazin-5-yl)amino)pentanamide]	C (“C” indicates maximum degradation <50%)
> 1000	> 1000	< 50	Nc1nnc(-c2ccccc2O)cc1OCCc1ccc(CN2CC(N3CCN(c4cccc5c4C(=O)N(C4CCC(=O)NC4=O)C5=O)CC3)C2)cc1 (stereo not drawn) [Compound 143, 4-(4-(1-(4-(2-((3-amino-6-(2-hydroxyphenyl)pyridazin-4-yl)oxy)ethyl)benzyl)azetidin-3-yl)piperazin-1-yl)-2-(2,6-dioxopiperidin-3-yl)isoindoline-1,3-dione]	C (“C” indicates maximum degradation <50%)
> 1000	> 1000	< 50	CN(CCCCCOc1cccc2c1C(=O)N(C1CCC(=O)NC1=O)C2=O)Cc1ccc(CCN(C)c2cc(-c3ccccc3O)nnc2N)cc1 (stereo not drawn) [Compound 145, 4-((5-((4-(2-((3-amino-6-(2-hydroxyphenyl)pyridazin-4-yl)(methyl)amino)ethyl)benzyl)(methyl)amino)pentyl)oxy)-2-(2,6-dioxopiperidin-3-yl)isoindoline-1,3-dione formate]	C (“C” indicates maximum degradation <50%)
> 1000	> 1000	< 50	CN(CCc1ccc(CNC(=O)CCCCOc2cccc3c2C(=O)N(C2CCC(=O)NC2=O)C3=O)cc1)c1cc(-c2ccccc2O)nnc1N (stereo not drawn) [Compound 146, N-(4-(2-((3-amino-6-(2-hydroxyphenyl)pyridazin-4-yl)(methyl)amino)ethyl)benzyl)-5-((2-(2,6-dioxopiperidin-3-yl)-1,3-dioxoisoindolin-4-yl)oxy)pentanamide]	C (“C” indicates maximum degradation <50%)
